Results from patent US20250057770A1, “Monomethylfumarate Prodrug Compositions” (Alkermes Pharma Ireland Limited, priority 2015, published 2025).
Where “and” joins values, the source holds several entries; their conditions need not be identical. Identical values can stand only once. Counter-ions that a name gives are not always drawn.

How the values were obtained:
Assay type in all cases: in vivo, human
[1] = Phase I 2-period cross-over study (Part 2): plasma MMF pharmacokinetics; conditions: 420 mg Compound 1 DR versus 240 mg DMF
Method: (§1) (The DMF oral dosage form used in this study was […]®, (Biogen Idec, Inc Cambridge, MA, USA)). A total of 16 subjects were enrolled and randomized to a treatment sequence.
Each dosing period was separated by a wash-out period of 7 days.
(§2) Blood samples were collected from all subjects prior to dosing and at 0.25, 0.50, 1, 1.50, 2, 2.50, 3, 4, 6, 8, 10, 12, and 24 hours after dosing. Plasma obtained from blood samples were analyzed for Compound 1, MMF and another metabolite using validated LC-MS/MS method. The plasma concentration-time profiles were analyzed via Non-Compartmental analysis (NCA) using Phoenix WinNonLin, version 6.3.

[2] = Single ascending dose study (Part 1): plasma MMF pharmacokinetics; conditions: oral dosing, 49 to 980 mg
Method: (§3) A randomized, double-blind, placebo-controlled, sequential, single ascending dose study was conducted in healthy subjects to investigate the safety, tolerability and pharmacokinetics of capsules containing delayed release (DR) mini-tablets of Compound 1 from Example 2.1 (“Compound 1 DR capsules”). Up to 7 cohorts were included with 8 subjects in each cohort. In each cohort, 6 subjects received Compound 1 DR capsules and 2 subjects were treated with placebo in fasted condition. Compound 1 doses investigated were 49 mg (Cohort 1), 105 mg (Cohort 2), 210 mg (Cohort 3), 420 mg (Cohort 4), 630 mg (Cohort 5), 840 mg (Cohort 6), and 980 mg (Cohort 7) (all weights being mg of prodrug).
as §2

[3] = Single ascending dose study (Part 1): safety and tolerability, adverse events
Method: as §3

[4] = Phase I 2-period cross-over study (Part 2): safety and tolerability, adverse events; conditions: DMF 240 mg or Compound 1 DR 420 mg
Text: as §1
Each dosing period was separated by a wash-out period of 7 days. […]

COC(=O)/C=C/C(=O)OCCN1C(=O)CCC1=O [Compound 1, 2-(2,5-dioxopyrrolidin-1-yl)ethyl methyl fumarate]
PK variability (% CV) compared to DMF treatment [1]: less PK variability | PK variability (% CV) compared to DMF treatment ([1]; listed as 2-(2,5-dioxopyrrolidin-1-yl)ethyl methyl fumarate): less variability | conversion to metabolite MMF in plasma [2]: rapidly converted | Subjects with Abdominal discomfort ([3]; 49 mg, N = 6): 0 n (%) | Subjects with Abdominal pain ([3]; 49 mg, N = 6): 0 n (%) | Subjects with Diarrhoea ([3]; 49 mg, N = 6): 0 n (%) | Subjects with Flatulence ([3]; 49 mg, N = 6): 0 n (%) | Subjects with Flushing ([3]; 49 mg, N = 6): 1 (16.7) n (%) | Subjects with Frequent bowel movements ([3]; 49 mg, N = 6): 1 (16.7) n (%) | Subjects with Gastrointestinal disorders (SOC) ([3]; 49 mg, N = 6): 1 (16.7) n (%) | Subjects with Nausea ([3]; 49 mg, N = 6): 0 n (%) | Subjects with Vascular disorders (SOC) ([3]; 49 mg, N = 6): 1 (16.7) n (%) | Subjects with Abdominal discomfort ([3]; 105 mg, N = 6): 0 n (%) | Subjects with Abdominal pain ([3]; 105 mg, N = 6): 0 n (%) | Subjects with Diarrhoea ([3]; 105 mg, N = 6): 0 n (%) | Subjects with Flatulence ([3]; 105 mg, N = 6): 0 n (%) | Subjects with Flushing ([3]; 105 mg, N = 6): 0 n (%) | Subjects with Frequent bowel movements ([3]; 105 mg, N = 6): 0 n (%) | Subjects with Gastrointestinal disorders (SOC) ([3]; 105 mg, N = 6): 0 n (%) | Subjects with Nausea ([3]; 105 mg, N = 6): 0 n (%) | Subjects with Vascular disorders (SOC) ([3]; 105 mg, N = 6): 0 n (%) | Subjects with Abdominal discomfort ([3]; 210 mg, N = 6): 1 (16.7) n (%) | Subjects with Abdominal pain ([3]; 210 mg, N = 6): 0 n (%) | Subjects with Diarrhoea ([3]; 210 mg, N = 6): 0 n (%) | Subjects with Flatulence ([3]; 210 mg, N = 6): 0 n (%) | Subjects with Flushing ([3]; 210 mg, N = 6): 2 (33.3) n (%) | Subjects with Frequent bowel movements ([3]; 210 mg, N = 6): 0 n (%) | Subjects with Gastrointestinal disorders (SOC) ([3]; 210 mg, N = 6): 1 (16.7) n (%) | Subjects with Nausea ([3]; 210 mg, N = 6): 0 n (%) | Subjects with Vascular disorders (SOC) ([3]; 210 mg, N = 6): 2 (33.3) n (%) | Subjects with Abdominal discomfort ([3]; 420 mg, N = 6): 0 n (%) | Subjects with Abdominal pain ([3]; 420 mg, N = 6): 0 n (%) | Subjects with Diarrhoea ([3]; 420 mg, N = 6): 0 n (%) | Subjects with Flatulence ([3]; 420 mg, N = 6): 0 n (%) | Subjects with Flushing ([3]; 420 mg, N = 6): 4 (66.7) n (%) | Subjects with Frequent bowel movements ([3]; 420 mg, N = 6): 0 n (%) | Subjects with Gastrointestinal disorders (SOC) ([3]; 420 mg, N = 6): 0 n (%) | Subjects with Nausea ([3]; 420 mg, N = 6): 0 n (%) | Subjects with Vascular disorders (SOC) ([3]; 420 mg, N = 6): 4 (66.7) n (%) | Subjects with Abdominal discomfort ([3]; 630 mg, N = 6): 0 n (%) | Subjects with Abdominal pain ([3]; 630 mg, N = 6): 0 n (%) | Subjects with Diarrhoea ([3]; 630 mg, N = 6): 1 n (%) | Subjects with Flatulence ([3]; 630 mg, N = 6): 0 n (%) | Subjects with Flushing ([3]; 630 mg, N = 6): 6 n (%) | Subjects with Frequent bowel movements ([3]; 630 mg, N = 6): 0 n (%) | Subjects with Gastrointestinal disorders (SOC) ([3]; 630 mg, N = 6): 1 n (%) | Subjects with Nausea ([3]; 630 mg, N = 6): 0 n (%) | Subjects with Vascular disorders (SOC) ([3]; 630 mg, N = 6): 6 n (%) | Subjects with Abdominal discomfort ([3]; 840 mg, N = 6): 0 n (%) | Subjects with Abdominal pain ([3]; 840 mg, N = 6): 0 n (%) | Subjects with Diarrhoea ([3]; 840 mg, N = 6): 1 (16.7) n (%) | Subjects with Flatulence ([3]; 840 mg, N = 6): 2 (33.3) n (%) | Subjects with Flushing ([3]; 840 mg, N = 6): 5 (83.3) n (%) | Subjects with Frequent bowel movements ([3]; 840 mg, N = 6): 0 n (%) | Subjects with Gastrointestinal disorders (SOC) ([3]; 840 mg, N = 6): 2 (33.3) n (%) | Subjects with Nausea ([3]; 840 mg, N = 6): 0 n (%) | Subjects with Vascular disorders (SOC) ([3]; 840 mg, N = 6): 5 (83.3) n (%) | Subjects with Abdominal discomfort ([3]; 980 mg, N = 6): 1 n (%) | Subjects with Abdominal pain ([3]; 980 mg, N = 6): 1 n (%) | Subjects with Diarrhoea ([3]; 980 mg, N = 6): 2 n (%) | Subjects with Flatulence ([3]; 980 mg, N = 6): 1 n (%) | Subjects with Flushing ([3]; 980 mg, N = 6): 6 n (%) | Subjects with Frequent bowel movements ([3]; 980 mg, N = 6): 0 n (%) | Subjects with Gastrointestinal disorders (SOC) ([3]; 980 mg, N = 6): 4 n (%) | Subjects with Nausea ([3]; 980 mg, N = 6): 2 n (%) | Subjects with Vascular disorders (SOC) ([3]; 980 mg, N = 6): 6 n (%) | tolerability during the trial ([3]; 49 to 980 mg single doses): well tolerated | Subjects with Flushing ([3]; dose levels ≥420 mg): > 50% | Subjects with Flushing ([4]; N = 12): 8 (66.7%) n (%) | Subjects with Gastrointestinal disorders (SOC) ([4]; N = 12): 1 (8.3%) n (%)

COC(=O)/C=C/C(=O)OC [DMF, Dimethyl fumarate]
mean onset of flushing [4]: 1.2 h | Subjects with Constipation ([4]; N = 12): 0 n (%) | Subjects with Diarrhoea ([4]; N = 12): 1 (8.3%) n (%) and 1 n (%) | Subjects with Eructation ([4]; N = 12): 1 n (%) | Subjects with Flatulence ([4]; N = 12): 1 n (%) | Subjects with Flushing ([4]; N = 12): 8 (66.7%) n (%) and 8 n (%) | Subjects with Gastrointestinal disorders (SOC) ([4]; N = 12): 5 (41.7%) n (%) and 5 n (%) | Subjects with Nausea ([4]; N = 12): 3 (25%) n (%) and 3 n (%) | Subjects with Retching ([4]; N = 12): 1 (8.3%) n (%) and 1 n (%) | Subjects with Vascular disorders (SOC) ([4]; N = 12): 8 n (%)
